Experimental data as given in patent publication US6610473B1 (priority 1999, dated 2003).

Target: HPV16-E6 protein (Human papillomavirus type 16, UniProt P03126)
Sequence (P03126 whole entry): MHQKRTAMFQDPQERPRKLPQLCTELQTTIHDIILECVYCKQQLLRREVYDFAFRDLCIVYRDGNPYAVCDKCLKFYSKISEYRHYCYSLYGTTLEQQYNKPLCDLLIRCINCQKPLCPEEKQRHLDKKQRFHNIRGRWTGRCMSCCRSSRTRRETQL

Row | Substance | clones obtained in another screening assay for HPV-E6 protein-binding peptides
1 | NH2-LFDIFRLCAQ PVLVHGHTRV-COOH [E61-20.pep] | obtained
2 | NH2-LVGRVRIGVS VFIRGGRLL-COOH [E61-19.pep] | obtained
